Laboratory results taken from US9056111B1, “Selective efflux inhibitors and related pharmaceutical compositions and methods of treatment” (STC.UNM, priority 2011, dated 2015).
Values joined by “and” are separate entries in the source; they are usually repeats but may differ in a detail not shown here. Equal entries are not always repeated. “Also recorded” adds a separate entry of the source.

Key:
[1] = test system: ABCB1 over-expressing Jurkat-DNR cells; test: Chemoreversal assay: potentiation of daunorubicin (DNR) killing; format: cell-based; details: constant 100 nM DNR, varied inhibitor dose, read-out: CR50 ABCB1
[2] = target: ABCB1 (Homo sapiens, UniProt P08183); test: JC-1 efflux inhibition dose response, flow cytometry, Jurkat-DNR cells; details: for IC50: IC50 ABCB1 (efflux inhibition of JC-1 substrate), Jurkat-DNR cells over-expressing ABCB1, averages of two to four replicates
Sequence of ABCB1 (P08183 whole entry): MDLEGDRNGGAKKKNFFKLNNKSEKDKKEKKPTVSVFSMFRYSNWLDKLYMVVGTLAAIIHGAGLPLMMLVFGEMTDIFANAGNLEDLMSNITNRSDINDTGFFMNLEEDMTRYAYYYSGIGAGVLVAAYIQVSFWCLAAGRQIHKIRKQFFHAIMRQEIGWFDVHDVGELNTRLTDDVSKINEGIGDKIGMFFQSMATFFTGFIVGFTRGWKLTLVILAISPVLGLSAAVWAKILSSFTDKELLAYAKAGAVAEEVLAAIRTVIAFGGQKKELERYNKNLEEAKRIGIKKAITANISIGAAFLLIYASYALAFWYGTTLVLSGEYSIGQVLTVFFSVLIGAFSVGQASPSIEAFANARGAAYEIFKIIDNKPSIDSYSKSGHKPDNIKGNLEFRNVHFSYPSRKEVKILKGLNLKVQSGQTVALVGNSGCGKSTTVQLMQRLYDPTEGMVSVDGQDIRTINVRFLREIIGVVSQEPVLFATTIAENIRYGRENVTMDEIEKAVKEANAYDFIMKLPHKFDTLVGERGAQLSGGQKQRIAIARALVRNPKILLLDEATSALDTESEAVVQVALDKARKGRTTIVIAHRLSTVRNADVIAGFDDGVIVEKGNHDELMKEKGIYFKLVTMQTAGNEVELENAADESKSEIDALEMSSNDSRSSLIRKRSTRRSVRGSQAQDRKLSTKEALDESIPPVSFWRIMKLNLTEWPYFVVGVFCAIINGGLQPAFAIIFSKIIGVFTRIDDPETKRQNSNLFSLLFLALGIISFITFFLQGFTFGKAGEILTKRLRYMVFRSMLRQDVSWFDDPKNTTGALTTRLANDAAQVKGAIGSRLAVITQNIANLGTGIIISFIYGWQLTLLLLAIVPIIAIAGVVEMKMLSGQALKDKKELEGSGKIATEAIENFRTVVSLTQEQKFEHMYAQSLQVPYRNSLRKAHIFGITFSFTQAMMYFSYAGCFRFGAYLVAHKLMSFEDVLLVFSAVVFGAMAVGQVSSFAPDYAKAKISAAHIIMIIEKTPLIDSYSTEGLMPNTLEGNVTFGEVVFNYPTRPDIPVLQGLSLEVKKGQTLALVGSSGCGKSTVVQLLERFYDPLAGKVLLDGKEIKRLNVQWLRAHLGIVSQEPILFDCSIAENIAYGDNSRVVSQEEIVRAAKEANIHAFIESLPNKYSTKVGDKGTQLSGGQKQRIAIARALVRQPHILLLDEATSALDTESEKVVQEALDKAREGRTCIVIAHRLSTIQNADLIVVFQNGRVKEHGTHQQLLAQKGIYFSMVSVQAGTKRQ
Method in brief: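 Jurkat-DNR cells pre-stained with 1 μM JC-1 were incubated with compound (final 50 μM to 69 nM, […]) at 1×10^6 cells/mL, rotated 30 min at 25° C. Retained JC-1 read by flow cytometry (488 nm excitation, 530/40 nm emission). Curves fitted to a four-parameter logistic.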

[3] = test system: Ig-MXP3 cells; test: Direct cytotoxicity (Toxic Dose 50) without chemotherapeutic; format: cell-based; details: Ig-MXP3 cells, inhibitor without chemotherapeutic
[4] = target: T1, ABCG2 (Homo sapiens, UniProt Q9UNQ0); test: JC-1 efflux inhibition dose response, flow cytometry, Ig-MXP3 cells
T1 sequence (Q9UNQ0 1-655): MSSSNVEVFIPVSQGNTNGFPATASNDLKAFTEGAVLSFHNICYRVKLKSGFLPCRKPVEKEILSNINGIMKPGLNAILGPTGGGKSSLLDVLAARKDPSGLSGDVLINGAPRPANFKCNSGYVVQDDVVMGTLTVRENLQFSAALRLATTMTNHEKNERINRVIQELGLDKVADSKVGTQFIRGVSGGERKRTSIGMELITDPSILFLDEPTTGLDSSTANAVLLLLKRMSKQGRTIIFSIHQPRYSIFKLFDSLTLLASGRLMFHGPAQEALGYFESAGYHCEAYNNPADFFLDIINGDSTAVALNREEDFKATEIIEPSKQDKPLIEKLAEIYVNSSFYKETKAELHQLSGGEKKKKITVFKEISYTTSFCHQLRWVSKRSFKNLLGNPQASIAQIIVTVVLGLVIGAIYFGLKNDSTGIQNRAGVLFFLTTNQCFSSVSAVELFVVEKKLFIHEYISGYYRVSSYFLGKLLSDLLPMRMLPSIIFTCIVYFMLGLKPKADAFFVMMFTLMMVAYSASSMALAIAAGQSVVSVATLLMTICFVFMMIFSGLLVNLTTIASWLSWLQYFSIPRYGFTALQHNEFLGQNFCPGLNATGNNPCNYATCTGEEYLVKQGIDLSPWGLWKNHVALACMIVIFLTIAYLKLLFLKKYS
Method in brief: (§1)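 Ig-MXP3 (ABCG2) and Jurkat-DNR (ABCB1) cells, run separately, are pre-stained with 1 μM JC-1 and added to compound in PBS; retained dye is read by high-throughput flow cytometry with time-gated analysis.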

[5] = target: T2, ABCB1 / ABCG2 (Homo sapiens, UniProt Q9UNQ0); test: as above; details: human, probe JC-1 (1 µM), ~Fold G2 Selective (B1/G2), quotient of average ABCB1 IC50 and average ABCG2 IC50, efflux assay
T2 sequence (Q9UNQ0 1-655): T1 sequence (Q9UNQ0 1-655)
Method in brief: as §1

[6] = test system: Jurkat-DNR cells; test: Direct cytotoxicity (Toxic Dose 50) without chemotherapeutic; details: Jurkat-DNR cells, inhibitor without chemotherapeutic
Description: Cells (ABCB1, Jurkat-DNR or ABCG2 Ig-MXP3) are incubated with the test compound (3 order of magnitude concentration range) over a 3-day and 7-day period in the presence of the inhibitor and chemotherapeutic (ABCB1, DNR or ABCG2 MTX), such that a cell concentration of at least 1×10^5 cells/mL is maintained. Cell viability is determined by trypan blue staining and enumeration under light microscopy. […] A chemoreversal index (Chemoreversal 50, CR50) is determined from the viability assessment. Using a similar approach, a direct cytotoxicity index (Toxic Dose 50, TD50) is determined by assessment of cell death of cells grown in media alone.
Cells (ABCB1, Jurkat-DNR or ABCG2 Ig-MXP3) were incubated with the test compound in a 3 order of magnitude concentration range over three and seven day periods in the presence of the inhibitor and chemotherapeutic (ABCB1, 100 nM DNR or ABCG2 30 nM MTX), such that a cell concentration of at least 1×10^5 cells mL^−1 was maintained. Cell viability was determined by trypan blue staining and enumeration under light microscopy. […] A chemoreversal index (Chemoreversal 50, CR50) was determined from the viability assessment. Using a similar approach, a direct cytotoxicity index (Toxic Dose 50, TD50) was determined by assessment of cell death of cells grown in media alone.

[7] = test system: ABCG2 over-expressing Ig-MXP3 cells; test: Chemoreversal assay: potentiation of mitoxantrone (MTX) killing; format: cell-based; details: Ig-MXP3 cells, constant 30 nM MTX, varied inhibitor dose; read-out: CR50 ABCG2
[8] = test system: ABCG2 over-expressing Igrov1/T8 tumors; test: ABCG2 resistant Igrov1/T8 tumor xenograft, combination with topotecan; format: in vivo, CB-17 SCID mice
Description: Specific-pathogen-free adult CB-17 female SCID mice (5-6 weeks of age) weighing 20-25 g, are purchased. Briefly, ABCG2 over-expressing Igrov1/T8 cells are injected (5×10^6 cells/mouse). Prior to injection, Igrov1/T8 cells are maintained in topotecan in order to assure continuous expression of ABCG2. Tumors are allowed to grow for 3-4 weeks or until tumor volumes are greater than ˜100 cubic millimeters, at which time they are stratified into treatment groups. Treatment is administered and we observe the size of the tumor and weight of the mouse over a 7 day period. At the end of 7 days, we: 1) sacrifice the animal; 2) measure and weigh the tumor (if present); 3) analyze the histology of the tumor as well as other organs for evidence of toxicity; and 4) measure the expression of ABCG2 receptors on the tumor to determine if in vivo growth has altered ABCG2 expression. In our initial studies, we have generally observed high survival at 4 weeks (>90%) which escalates rapidly with near 100% mortality by 6 weeks. This approach is well described elsewhere.^9
Tumor-bearing mice were injected with either 150 nM TPT, 100 nM SID 88095709 (probe resupply), or 500 nM SID 85752814 (original SMR hit).
Igrov1/T8 cells were injected into the hind limbs of CB-17 SCID mice at a concentration of 1×10^7 cells in 200 μL, n of 3 per condition. The tumor was grown until the volume was in the range of 75 mm^3 to 250 mm^3. […] Injections were repeated daily and the size of the tumor was determined as a fraction of the starting size. After four days the mice were sacrificed and any recurring tumor was verified by light microscopy examination of histological sections. Mice were studied and maintained in accordance with guidelines of our Institutional Animal Research Committee at UNM HSC.

[9] = test system: parental Igrov1 cells; test: Topotecan killing of parental cells; format: cell-based; details: Homo sapiens, IGROV-1
[10] = test system: resistant Igrov1/T8 cells; test: Topotecan killing of resistant cells; format: cell-based; details: Homo sapiens, IGROV-1

Structure (SMILES)	EC50 [1] [nM]	IC50 [2]	TD50 ABCG2 [3] [µM]	IC50 [4] [nM]	selectivity ratio at 30 min [5]	TD50 ABCB1 [6] [µM]	EC50 [7] [nM]	~Fold G2 Selective (B1/G2) ([4]; quotient of average ABCB1 IC50 and average ABCG2 IC50, efflux assay) [fold]	efflux inhibition activity ABCB1 ([2]; JC-1 efflux, Jurkat-DNR)	Tumor size reduced by ([8]; 100 nM topotecan + 100 nM compound intra-tumorally every 24 hours, 5 days (120 hours), n=5) [%]	tumor size, inhibitor alone ([8]; inhibitor alone (100 nM or 500 nM as printed), Example 3)	EC50 [9] [nM]	EC50 [10] [nM]	tumor size, topotecan alone ([8]; 100 nM topotecan alone, Example 3)	tumor size, single agent ([8]; 150 nM TPT, 100 nM SID 88095709 or 500 nM SID 85752814 alone, listed as TPT)
O=C(c1ccoc1)N1CCN(c2cc(-c3ccncc3)nc3cc(-c4cccc(Cl)c4)nn23)CC1 [Compound 31]	600	3680 ± 350 nM	57.80	1460 ± 350	2.5	13.50	890	–	–	–	–	–	–	–	–
COc1ccccc1-c1cc2nc(-c3ccccc3)cc(N3CCN(C(=O)c4ccoc4)CC3)n2n1 [Compound 34]	450	2170 ± 760 nM	6.50	450 ± 170	4.8	4.37	490	–	–	–	–	–	–	–	–
COc1ccc(-c2cc3nc(-c4ccccc4)cc(N4CCN(C(=O)c5ccoc5)CC4)n3n2)cc1 [Compound 36]	230	1440 ± 700 nM	>100	1160 ± 660	1.2	5.54	380	–	–	–	–	–	–	–	–
COc1ccccc1-c1cc(N2CCN(C(=O)c3ccoc3)CC2)n2nc(-c3ccccc3)cc2n1 [Compound 44]	170	4520 nM and 4620 nM	7.62	3660 ± 2540	1.2	3.73	680	–	–	–	–	–	–	–	–
O=C(c1ccoc1)N1CCN(c2cc(-c3ccco3)nc3cc(-c4ccco4)nn23)CC1 [Compound 52]	190	1700 nM	>100	2350	0.7	1.93	1210	–	–	–	–	–	–	–	–
O=C(c1ccoc1)N1CCN(c2cc(-c3ccco3)nc3cc(-c4cccc(Cl)c4)nn23)CC1 [Compound 53]	530	6420 nM	10.80	2550	2.5	8.53	1380	–	–	–	–	–	–	–	–
COc1ccc(-c2cc3nc(-c4ccco4)cc(N4CCN(C(=O)c5ccoc5)CC4)n3n2)cc1 [Compound 57]	5770	3450 nM	>100	890	3.9	>100	760	–	–	–	–	–	–	–	–
O=C(c1ccoc1)N1CCN(c2cc(-c3ccoc3)nc3cc(-c4ccccc4)nn23)CC1 [Compound 61]	420	1600 nM	18.30	1400	1.1	7.33	760	–	–	–	–	–	–	–	–
COc1cccc(-c2cc(N3CCN(C(=O)c4ccoc4)CC3)n3nc(-c4ccccc4)cc3n2)c1 [Compound 65]	180	16400 nM	67.80	200	83	5.77	680	82.1	–	–	–	–	–	–	–
CC(=O)N1CCN(c2cc(-c3ccco3)nc3cc(-c4ccccc4)nn23)CC1 [Compound 74]	190	3640 nM	>100	520	7	10.10	930	–	–	–	–	–	–	–	–
CC(=O)N1CCN(c2cc(-c3ccco3)nc3cc(-c4cccc(Cl)c4)nn23)CC1 [Compound 87]	80	800 nM	>100	560	1.4	17.60	580	–	–	–	–	–	–	–	–
COc1cccc(-c2cc3nc(-c4ccco4)cc(N4CCN(C(C)=O)CC4)n3n2)c1 [Compound 88]	320	1640 nM	>100	1900	0.9	49.30	1180	–	–	–	–	–	–	–	–
COc1cccc(-c2cc3nc(C)c(C)c(N4CCN(Cc5ccoc5)CC4)n3n2)c1 [SID 97301789]	–	–	> 100	–	233	> 100	–	–	abolished activity	55	No reduction in size	–	–	–	–
CC[C@@]1(O)C(=O)OCc2c1cc1n(c2=O)Cc2cc3c(CN(C)C)c(O)ccc3nc2-1 [Topotecan, reference compound]	–	–	–	–	–	–	–	–	–	–	–	7	311	No reduction in size	remained the same or increased; also recorded: did not affect the growth of tumors
